1 compound from ChEMBL document CHEMBL5360570, “Discovery of pyrazolo[3,4-b]pyridine derivatives as novel and potent Mps1 inhibitors for the treatment of cancer” (Eur J Med Chem, 2023) can be followed below.

The target of data set [1] is Leucine-rich repeat serine/threonine-protein kinase 2 (Homo sapiens) (UniProt Q5S007). As to the kind of experiment: Inhibition of LRRK2 (unknown origin) assessed as residual activity at 1 uM relative to control.
Data set [2] can be described thus: MRT (0 to t) in Sprague-Dawley rat at 2 mg/kg, iv measured upto 24 hrs by LC-MS/MS analysis. In kind it is ADME, organism-based. The conditions noted are these: in vivo.
The target of another data set is ALK-KIF5B (Homo sapiens) (UniProt Q9UM73+P33176). Put plainly: Inhibition of ALK-KIF5B (unknown origin) assessed as residual activity at 1 uM relative to control. The data set is classed as protein assay.
For data set [3], the target named is Non-receptor tyrosine-protein kinase TNK1 (Homo sapiens) (UniProt Q13470). As to the kind of experiment: Inhibition of TNK1 (unknown origin) assessed as residual activity at 1 uM relative to control.
Data set [4] can be described thus: Metabolic stability in human liver microsome assessed as parent compound remaining preincubated for 10 mins followed by NADPH addition and measured at 15 mins by LC-MS/MS analysis. The data set is classed as ADME. The following applies: liver microsomes, time 25 min, read-out: Stability.
In data set [5] the target is ALK tyrosine kinase receptor (Homo sapiens) (UniProt Q9UM73). As to the kind of experiment: Inhibition of ALK (unknown origin) assessed as residual activity at 1 uM relative to control.
Data set [6] deals with Tyrosine-protein kinase FRK (Homo sapiens) (UniProt P42685). Put plainly: Inhibition of PTK5 (unknown origin) assessed as residual activity at 1 uM relative to control.
Data set [7] concerns ALK tyrosine kinase receptor (Homo sapiens), Q9UM73 [T1151M]. As to the kind of experiment: Inhibition of ALK T1151M mutant (unknown origin) assessed as residual activity at 1 uM relative to control.
Data set [8] in a line: Metabolic stability in human liver microsome assessed as parent compound remaining preincubated for 10 mins followed by NADPH addition and measured at 60 mins by LC-MS/MS analysis. The data set is classed as ADME. The conditions noted are these: liver microsomes, time 70 min, read-out: Stability. Background: Liver microsomes are vesicles of endoplasmic reticulum, rich in cytochrome P450 enzymes.

A further data set deals with ALK-TPM3 (Homo sapiens) (UniProt Q9UM73+P06753). As to the kind of experiment: Inhibition of ALK-TPM3 (unknown origin) assessed as residual activity at 1 uM relative to control. The data set is classed as protein assay.
Data set [9] concerns the target Calcium/calmodulin-dependent protein kinase type II subunit alpha (Homo sapiens) (UniProt Q9UQM7). As to the kind of experiment: Inhibition of CaMK2alpha (unknown origin) assessed as residual activity at 1 uM relative to control.
Data set [10] concerns the target Receptor-type tyrosine-protein kinase FLT3 (Homo sapiens) (UniProt P36888). As to the kind of experiment: Inhibition of FLT3 (unknown origin) assessed as residual activity at 1 uM relative to control.
For another data set, the target named is ALK-TFG (Homo sapiens) (UniProt Q9UM73+Q92734). Put plainly: Inhibition of ALK-TFG (Tex4Aex20) (unknown origin) assessed as residual activity at 1 uM relative to control. In kind it is protein assay.
Data set [11] can be described thus: Metabolic stability in human liver microsome assessed as intrinsic clearance preincubated for 10 mins followed by NADPH addition and measured upto 60 mins by LC-MS/MS analysis. In kind it is ADME. The conditions noted are these: liver microsomes, time < 70 min, read-out: CLH.
The nature of data set [12]: AUC (0 to infinity) in Sprague-Dawley rat at 2 mg/kg, iv measured upto 24 hrs by LC-MS/MS analysis. In kind it is ADME, organism-based. On the set-up: dose 2 mg/kg, time < 24 hrs, route iv. The conditions noted are these: in vivo.
Data set [13] is described as follows: AUC (0 to t) in Sprague-Dawley rat at 10 mg/kg, po measured upto 24 hrs by LC-MS/MS analysis. The data set is classed as ADME, organism-based. On the set-up: time < 24 hrs, dose 10 mg/kg, route po. The conditions noted are these: in vivo.
Data set [14] concerns ALK tyrosine kinase receptor (Homo sapiens), Q9UM73 [S1206R]. Put plainly: Inhibition of ALK S1206R mutant (unknown origin) assessed as residual activity at 1 uM relative to control.
Data set [15] in a line: Antiproliferative activity against human RBE cells assessed inhibition of cell growth incubated for 72 hrs by CCK-8 assay. In kind it is functional, cell-based.
The target in data set [16] is Tyrosine-protein kinase JAK3 (Homo sapiens) (UniProt P52333). Put plainly: Inhibition of JAK3 (unknown origin) assessed as residual activity at 1 uM relative to control.
Data set [17] in a line: Oral bioavailability in Sprague-Dawley rat at 10 mg/kg measured upto 24 hrs by LC-MS/MS analysis. The data set is classed as ADME, organism-based. The conditions noted are these: in vivo.

Sequence of Tyrosine-protein kinase JAK3 (Homo sapiens) (P52333 whole entry): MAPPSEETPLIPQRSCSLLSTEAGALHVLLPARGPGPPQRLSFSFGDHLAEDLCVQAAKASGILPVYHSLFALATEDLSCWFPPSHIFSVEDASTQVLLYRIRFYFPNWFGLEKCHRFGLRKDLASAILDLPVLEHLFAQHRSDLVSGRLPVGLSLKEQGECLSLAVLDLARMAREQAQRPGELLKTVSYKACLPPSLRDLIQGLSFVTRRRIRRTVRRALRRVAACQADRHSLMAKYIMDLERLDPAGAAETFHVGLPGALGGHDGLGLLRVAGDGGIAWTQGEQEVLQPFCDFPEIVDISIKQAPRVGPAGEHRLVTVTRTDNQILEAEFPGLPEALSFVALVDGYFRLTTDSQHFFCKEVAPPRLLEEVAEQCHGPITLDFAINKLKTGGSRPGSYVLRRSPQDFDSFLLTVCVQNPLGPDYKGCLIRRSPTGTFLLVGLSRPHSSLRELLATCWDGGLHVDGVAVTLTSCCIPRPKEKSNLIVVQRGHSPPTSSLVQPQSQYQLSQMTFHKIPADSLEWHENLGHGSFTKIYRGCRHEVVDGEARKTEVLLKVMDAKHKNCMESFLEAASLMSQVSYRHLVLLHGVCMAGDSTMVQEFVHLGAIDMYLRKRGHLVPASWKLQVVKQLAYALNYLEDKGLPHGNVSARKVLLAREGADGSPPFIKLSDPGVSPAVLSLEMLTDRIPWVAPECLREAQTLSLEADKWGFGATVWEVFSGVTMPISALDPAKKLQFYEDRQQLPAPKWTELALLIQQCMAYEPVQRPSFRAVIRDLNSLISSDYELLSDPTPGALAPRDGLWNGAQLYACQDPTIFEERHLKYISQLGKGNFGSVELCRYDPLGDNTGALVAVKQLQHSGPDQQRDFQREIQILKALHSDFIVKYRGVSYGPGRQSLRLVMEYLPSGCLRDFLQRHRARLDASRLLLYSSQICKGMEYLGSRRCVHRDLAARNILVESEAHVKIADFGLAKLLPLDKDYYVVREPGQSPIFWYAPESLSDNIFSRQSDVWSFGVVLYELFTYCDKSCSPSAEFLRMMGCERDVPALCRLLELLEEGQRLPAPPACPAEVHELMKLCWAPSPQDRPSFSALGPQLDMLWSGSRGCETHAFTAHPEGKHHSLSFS
Sequence of ALK-KIF5B (Homo sapiens) (P33176 whole entry, looked up): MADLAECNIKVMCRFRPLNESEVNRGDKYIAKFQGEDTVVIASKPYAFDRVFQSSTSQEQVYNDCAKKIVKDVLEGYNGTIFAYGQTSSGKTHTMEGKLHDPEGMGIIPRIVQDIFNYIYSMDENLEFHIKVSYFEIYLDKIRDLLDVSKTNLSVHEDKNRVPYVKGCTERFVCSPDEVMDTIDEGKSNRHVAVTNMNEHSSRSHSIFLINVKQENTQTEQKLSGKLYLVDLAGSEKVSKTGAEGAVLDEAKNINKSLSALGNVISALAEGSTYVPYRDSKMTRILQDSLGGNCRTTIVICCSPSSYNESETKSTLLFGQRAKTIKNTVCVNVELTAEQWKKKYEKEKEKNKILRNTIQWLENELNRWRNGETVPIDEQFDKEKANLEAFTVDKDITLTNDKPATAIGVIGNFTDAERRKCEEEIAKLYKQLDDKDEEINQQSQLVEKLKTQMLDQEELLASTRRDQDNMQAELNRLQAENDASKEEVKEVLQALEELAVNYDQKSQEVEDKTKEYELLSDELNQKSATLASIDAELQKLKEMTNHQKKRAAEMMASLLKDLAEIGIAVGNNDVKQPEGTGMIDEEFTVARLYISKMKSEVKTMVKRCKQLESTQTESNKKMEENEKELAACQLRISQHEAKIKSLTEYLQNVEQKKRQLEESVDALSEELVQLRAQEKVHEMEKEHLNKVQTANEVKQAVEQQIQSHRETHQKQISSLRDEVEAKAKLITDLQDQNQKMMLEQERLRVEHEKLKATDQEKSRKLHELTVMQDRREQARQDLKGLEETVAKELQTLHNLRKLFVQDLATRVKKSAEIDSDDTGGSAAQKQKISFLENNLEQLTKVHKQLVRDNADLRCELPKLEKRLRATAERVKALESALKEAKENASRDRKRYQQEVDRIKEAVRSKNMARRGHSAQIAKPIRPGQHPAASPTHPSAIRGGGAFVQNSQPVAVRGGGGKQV
Sequence of ALK-KIF5B (Homo sapiens) (Q9UM73 whole entry, looked up): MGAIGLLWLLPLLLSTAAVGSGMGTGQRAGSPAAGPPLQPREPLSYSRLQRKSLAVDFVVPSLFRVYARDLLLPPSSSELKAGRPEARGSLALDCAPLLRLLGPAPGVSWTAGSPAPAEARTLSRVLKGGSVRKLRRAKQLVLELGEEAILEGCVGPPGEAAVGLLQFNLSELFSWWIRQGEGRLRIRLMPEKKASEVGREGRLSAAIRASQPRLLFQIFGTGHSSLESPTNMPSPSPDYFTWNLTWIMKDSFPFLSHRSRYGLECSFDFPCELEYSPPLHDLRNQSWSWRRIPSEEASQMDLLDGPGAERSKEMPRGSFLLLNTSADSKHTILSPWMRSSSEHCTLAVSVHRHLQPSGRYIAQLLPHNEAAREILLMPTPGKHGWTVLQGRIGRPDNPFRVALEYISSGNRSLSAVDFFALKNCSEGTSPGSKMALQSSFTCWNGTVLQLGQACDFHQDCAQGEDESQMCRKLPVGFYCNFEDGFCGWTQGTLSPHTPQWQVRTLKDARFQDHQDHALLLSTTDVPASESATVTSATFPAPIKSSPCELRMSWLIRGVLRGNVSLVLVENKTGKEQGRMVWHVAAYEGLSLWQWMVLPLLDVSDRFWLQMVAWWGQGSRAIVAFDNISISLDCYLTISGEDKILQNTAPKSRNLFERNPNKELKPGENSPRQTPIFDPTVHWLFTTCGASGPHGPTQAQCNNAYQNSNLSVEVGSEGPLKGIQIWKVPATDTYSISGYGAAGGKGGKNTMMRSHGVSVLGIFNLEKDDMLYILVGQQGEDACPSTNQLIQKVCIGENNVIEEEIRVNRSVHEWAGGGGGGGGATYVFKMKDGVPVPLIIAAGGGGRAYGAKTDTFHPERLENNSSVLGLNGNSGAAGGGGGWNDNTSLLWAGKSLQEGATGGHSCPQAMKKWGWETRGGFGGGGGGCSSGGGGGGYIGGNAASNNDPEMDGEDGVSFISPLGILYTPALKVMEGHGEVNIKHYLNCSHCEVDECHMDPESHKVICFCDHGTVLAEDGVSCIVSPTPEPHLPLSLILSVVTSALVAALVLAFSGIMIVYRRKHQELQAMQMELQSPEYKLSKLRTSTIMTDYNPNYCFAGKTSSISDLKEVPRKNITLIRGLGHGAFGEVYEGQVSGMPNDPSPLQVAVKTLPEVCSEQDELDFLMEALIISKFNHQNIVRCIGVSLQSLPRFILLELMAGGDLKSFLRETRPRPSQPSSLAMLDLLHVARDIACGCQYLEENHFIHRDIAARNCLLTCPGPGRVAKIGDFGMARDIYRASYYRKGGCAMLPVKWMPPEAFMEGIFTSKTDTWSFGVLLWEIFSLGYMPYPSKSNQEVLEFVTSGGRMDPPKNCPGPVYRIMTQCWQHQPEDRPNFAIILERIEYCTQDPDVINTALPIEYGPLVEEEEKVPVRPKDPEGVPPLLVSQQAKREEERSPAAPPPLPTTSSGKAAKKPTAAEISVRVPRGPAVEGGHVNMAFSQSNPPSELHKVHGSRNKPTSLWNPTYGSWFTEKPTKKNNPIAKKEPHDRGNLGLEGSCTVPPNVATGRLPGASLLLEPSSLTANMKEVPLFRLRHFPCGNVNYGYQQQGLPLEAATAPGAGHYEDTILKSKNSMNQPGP
Sequence of Calcium/calmodulin-dependent protein kinase type II subunit alpha (Homo sapiens) (Q9UQM7 whole entry): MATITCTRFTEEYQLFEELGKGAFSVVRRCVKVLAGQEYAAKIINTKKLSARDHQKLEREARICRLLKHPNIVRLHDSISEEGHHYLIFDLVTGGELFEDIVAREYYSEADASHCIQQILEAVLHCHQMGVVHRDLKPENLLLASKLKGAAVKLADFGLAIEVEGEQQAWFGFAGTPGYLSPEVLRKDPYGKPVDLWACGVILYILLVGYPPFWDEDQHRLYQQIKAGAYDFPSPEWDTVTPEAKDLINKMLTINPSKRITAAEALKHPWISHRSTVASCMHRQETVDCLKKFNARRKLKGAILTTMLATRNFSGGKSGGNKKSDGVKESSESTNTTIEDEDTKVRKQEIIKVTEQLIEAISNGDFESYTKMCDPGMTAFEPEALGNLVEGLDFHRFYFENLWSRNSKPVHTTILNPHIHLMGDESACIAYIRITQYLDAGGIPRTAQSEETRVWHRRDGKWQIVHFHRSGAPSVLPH
Sequence of ALK tyrosine kinase receptor (Homo sapiens), Q9UM73 [T1151M] (Q9UM73 whole entry T1151M): as the sequence (Q9UM73 whole entry, looked up) above, with T1151M counted along it
Sequence of ALK-TPM3 (Homo sapiens) (P06753 whole entry, looked up): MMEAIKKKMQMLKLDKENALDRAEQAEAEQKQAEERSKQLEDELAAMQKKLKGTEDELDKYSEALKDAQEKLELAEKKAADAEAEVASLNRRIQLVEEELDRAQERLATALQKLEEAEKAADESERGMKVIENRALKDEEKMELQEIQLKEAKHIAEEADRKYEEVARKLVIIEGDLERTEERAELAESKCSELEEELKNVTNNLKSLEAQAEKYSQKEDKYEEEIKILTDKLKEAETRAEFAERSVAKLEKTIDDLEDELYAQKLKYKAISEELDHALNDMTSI
Sequence of ALK-TPM3 (Homo sapiens) (Q9UM73 whole entry, looked up): as the sequence (Q9UM73 whole entry, looked up) above
Sequence of Tyrosine-protein kinase FRK (Homo sapiens) (P42685 whole entry): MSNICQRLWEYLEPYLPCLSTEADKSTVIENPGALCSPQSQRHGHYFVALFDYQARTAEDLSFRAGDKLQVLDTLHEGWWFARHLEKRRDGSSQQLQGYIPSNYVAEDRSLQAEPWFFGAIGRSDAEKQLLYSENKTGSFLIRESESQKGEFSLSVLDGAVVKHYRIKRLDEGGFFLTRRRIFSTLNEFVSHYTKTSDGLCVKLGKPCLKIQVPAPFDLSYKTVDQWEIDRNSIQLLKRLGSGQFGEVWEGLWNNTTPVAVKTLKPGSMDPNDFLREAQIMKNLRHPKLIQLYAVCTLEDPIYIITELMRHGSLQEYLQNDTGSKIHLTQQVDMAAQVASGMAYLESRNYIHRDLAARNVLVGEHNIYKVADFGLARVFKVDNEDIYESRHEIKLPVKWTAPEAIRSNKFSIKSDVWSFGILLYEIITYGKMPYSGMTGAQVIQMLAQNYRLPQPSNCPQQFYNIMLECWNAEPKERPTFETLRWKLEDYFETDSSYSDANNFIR

As to `CCc1cccc(CC)c1N1CCn2cc(-c3nc(Nc4ccc(N5CCN(C(C)=O)CC5)cc4OC)nc4[nH]ncc34)cc2C1=O`, the Activity (in [1]; at ALK-KIF5B (Homo sapiens); in data set [3]; in data set [5]; in [6]; in [7]) was under 10% in each case. The Activity (at ALK-TPM3 (Homo sapiens); in data set [9]; in data set [10]; at ALK-TFG (Homo sapiens); in data set [14]; in data set [16]) was under 10% throughout. In addition, in data set [2], the MRT last (usually the average time that molecules of a dose stay in the body) at 24 h turned out to be 20.4 min. Further, the remaining at 0.25 h in [4] came out at 64.6%. In addition, the remaining at 1 h in [8] came to 29.4%. Moreover, the CLint scaled in data set [11] stood at 33.5 mL/min/kg. Moreover, the AUC(0-inf) (commonly total exposure, with the tail of the curve extrapolated) in data set [12] was determined as 1050 ng·h/mL. In addition, in data set [13], the AUC(0-t) – broadly, the area under the concentration-time curve up to a stated or last time point – at 24 h was determined as 204 ng·h/mL. In addition, the IC50 (commonly the point on the concentration scale where inhibition reaches its midpoint) in data set [15] is over 10 µM. The bioavailability (as a rule, the share of a dose that reaches the circulation, judged against a reference dose that is usually intravenous) in data set [17] worked out at 3.95%.
